Test results as given in US20100255089A1, “Pharmaceutical Compositions and Methods of Using Same” (priority 2006, published 2010).

Assay: physchem
Details: simulated gastric fluid
Method: In an uncapped vial, one part of the compound of Formula I is mixed with three, four, six, or nine parts polyvinylpyrrolidone (PVP-25/Kollidon 25), respectively. The mixture is dissolved in a sufficient amount of a mixture of acetone and ethanol, until all powders were in solution. The uncapped vial is placed into a vacuum oven set at 40° C., and let dry for at least 24 hours.
After that treatment, an amorphous state of the powder is achieved, which could be identified, e.g. by X-ray diffraction measurements or by determination of the solubility.

For `Cc1cc(C)c2c3ccccc3n(Cc3ccc([C@@H](C(=O)N[C@@H](CO)c4ccccc4)C4CCCC4)cc3)c2n1` [compound of Formula I, (2S)-2-cyclopentyl-2-(4-((2,4-dimethyl-9H-pyrido(2,3-B)indol-9-yl)methyl)-phenyl)-N-((1R)-2-hydroxy-1-phenylethyl)acetamide], the solubility was 0.1 µg/mL.
